# Reference: PubChem BioAssay (NCI)
#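 Growth conditions: 96-well plates. Treatment: test compound, 48 hours, 5 concentrations. Analysis: linear interpolation between bracketing concentrations; unreached endpoints set to highest concentration. Here, GI50 denotes the concentration required for 50% inhibition of growth. TGI is the concentration that stops growth completely.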
# Columns and labels:
# Assay in all cases: NCI tumour cell line growth inhibition, 48 h
# [1] = system: MDA-MB-231 breast
# [2] = system: SK-MEL-5 melanoma
# [3] = system: MDA-MB-435
# [4] = system: OVCAR-8 ovarian
# [5] = system: 786-0 renal
# [6] = system: HL-60(TB) leukemia
# [7] = system: BT-549 breast
# [8] = system: SK-MEL-28 melanoma
# [9] = system: MALME-3M melanoma
# [10] = system: NCI/ADR-RES ovarian
Compound,GI50 [1] [µM],TGI [1] [µM],GI50 [2] [µM],TGI [2] [µM],GI50 [3] [µM],TGI [3] [µM],GI50 [4] [µM],TGI [4] [µM],GI50 [5] [µM],TGI [5] [µM],GI50 [6] [µM],TGI [6] [µM],GI50 [7] [µM],TGI [7] [µM],GI50 [8] [µM],TGI [8] [µM],GI50 [9] [µM],TGI [9] [µM],GI50 [10] [µM],TGI [10] [µM]
CC1=C(C(=O)Nc2ccc(Cl)c(Cl)c2)C(c2cccc(O)c2)NC(=S)N1 (stereo not given),8.44,20,8.12,15.4,9.16,18.5,15.9,28.1,9.47,20,11.2,44.2,7.97,19.3,–,–,–,–,–,–
COc1cc2c(cc1C)NC(=O)/C2=C/c1c(C)nc2sc(C)cn12,40.9,> 100,24.4,64.7,32.4,> 100,> 100,> 100,> 100,> 100,–,–,40.4,> 100,> 100,> 100,60.1,> 100,45.5,> 100
N#Cc1ccccc1/C=N/O,–,–,–,> 100,–,–,–,> 100,–,> 100,–,> 62.2,–,–,–,> 100,–,> 100,–,–
O=C(/C=C/c1ccc2c(c1)OCO2)c1ccccc(=O)c1O,–,> 100,–,23,–,> 100,–,54.2,–,> 100,–,–,–,47.6,–,90.4,–,60,–,14.2
[O-][N+]1=C(c2ccccc2)COc2ccccc21,–,–,–,> 100,–,–,–,> 100,–,> 100,–,> 100,–,–,–,> 100,–,> 100,–,–
Cc1ccc(S(=O)(=O)NC(=O)Nc2nc(Cl)cc(Cl)n2)cc1,–,–,–,> 100,–,–,–,> 100,–,> 100,–,> 100,–,–,–,> 100,–,> 100,–,–
C#CCOc1c(OC)cc(C(=O)/C(C)=C/c2cccc(N=[N+]=[N-])c2)cc1OC,0.695,26.1,0.288,54.3,–,–,0.427,> 100,0.18,> 100,0.0411,0.481,0.131,7.1,29,> 100,–,–,0.119,> 100
C/C(CC(=O)Nc1ccc([N+](=O)[O-])cc1)=N/N=C(N)N,–,–,–,> 100,–,–,–,> 100,–,> 100,–,> 100,–,–,–,> 100,–,> 100,–,–
C[C@H]1[C@H](C)CC[C@]2(C(=O)O)CC[C@]3(C)C(=CC[C@@H]4[C@@]5(C)CC[C@H](OC(=O)/C=C\c6ccc(O)cc6)C(C)(C)[C@@H]5CC[C@]43C)[C@H]12,2.55,13.5,3.85,14.3,4.24,42.4,2.6,9.1,3.22,16,–,–,9.58,31.2,18,57,2.51,13.2,3.02,15
O=C1C=CC(=O)N1CCCCCCCCCCN1C(=O)C=CC1=O,15.7,29.5,22.2,56.1,13.2,28.1,13.9,44,16.2,30.4,8.72,31.4,–,–,14.8,30.9,2.05,6.49,21.2,55.9
Cn1c2ccccc2c(=S)c2cc(NC(=O)CCCCC(=O)Nc3ccc4c(c3)c(=S)c3ccccc3n4C)ccc21,–,> 100,–,> 100,–,> 100,–,> 100,–,> 100,–,–,–,> 100,–,> 100,–,–,–,> 100
COc1ccc2oc(-c3ccc(Cl)cc3)c(N3CCN(C)CC3)c2c1,1.64,3.27,1.58,3.06,1.83,4.06,1.9,3.94,1.75,3.42,2.64,> 20,6.39,20.7,1.62,3.08,–,–,2.19,5.46
COC(=O)c1cc(O)ccc1NC(=O)c1ccc(O)cc1,–,–,–,> 100,–,–,–,> 100,–,> 100,–,> 100,–,–,–,> 100,–,> 100,–,–
Cc1cc2c(=O)cc(-c3ccc(C(=O)O)cc3)oc2c(C(=O)O)c1C,–,–,–,> 100,–,–,–,> 100,–,> 100,–,> 100,–,–,–,> 100,–,> 100,–,–
O=C1CC23CC(=O)CC2(C1)c1ccccc1C3=O (stereo not given),–,–,–,–,–,–,–,> 100,–,> 100,–,> 100,–,–,–,> 100,–,> 100,–,–
O=C(CCc1cc(-c2ccco2)n(-c2ccc([N+](=O)[O-])cc2[N+](=O)[O-])n1)Nc1ccccc1,–,–,–,> 100,–,–,–,> 100,–,> 100,–,> 100,–,–,–,> 100,–,94.2,–,–
C=C1CCC2C(C)(CO)C(O)CCC2(C)C1CC(O)C1=CCOC1=O (stereo not given),–,–,–,> 100,–,–,–,> 100,–,71.6,–,85.9,–,–,–,> 100,–,> 100,–,–
COc1cc2c(/C=C3/C(=O)Nc4c3ccc3ccccc43)c(Cl)[nH]c2cc1C,0.0366,–,0.103,0.284,0.00618,0.0238,0.0176,1.82,0.0598,> 24.2,0.0115,0.661,0.0254,> 50,17.3,> 50,–,–,0.0139,1.09
COC(C(=O)[C@@H](O)[C@@H](C)O)[C@@H]1Cc2cc3cc(O[C@H]4C[C@@H](O[C@H]5C[C@@H](O)[C@H](O)C(C)O5)[C@H](O)C(C)O4)c(C)c(O)c3c(O)c2C(=O)[C@H]1O[C@H]1C[C@@H](O[C@H]2C[C@@H](O[C@H]3C[C@@H](O)[C@@H](O)C(C)O3)[C@@H](O)C(C)O2)[C@H](O)C(C)O1 (stereo not given in full),–,–,–,–,0.27,2.99,0.514,> 32.5,0.305,> 32.5,6.61,> 32.5,0.149,4.42,0.147,1.93,0.114,2.41,> 32.5,> 32.5
NNc1nc(-c2ccccn2)nc2sc3c(c12)CCCCCC3,12.7,> 100,3.16,24.1,5.17,> 100,4.39,> 100,5.65,25.2,4.46,36.3,9.73,> 100,14.9,> 100,–,–,0.453,52.3

Compound,GI50 [1] [µM],TGI [1] [µM],GI50 [2] [µM],TGI [2] [µM],GI50 [3] [µM],TGI [3] [µM],GI50 [4] [µM],TGI [4] [µM],GI50 [5] [µM],TGI [5] [µM],GI50 [6] [µM],TGI [6] [µM],GI50 [7] [µM],TGI [7] [µM],GI50 [8] [µM],TGI [8] [µM],GI50 [9] [µM],TGI [9] [µM],GI50 [10] [µM],TGI [10] [µM]
O=C1/C(=c2\c3ccccc3n3c(=O)c4ccccc4nc23)Nc2ccccc21,–,> 100,–,> 100,–,36.8,–,> 100,–,> 100,–,–,–,> 100,–,> 100,–,> 100,–,> 100
COC(=O)/C(Cl)=C1/CC1COCc1ccccc1 (stereo not given),–,–,–,54.7,–,–,–,> 100,–,42.2,–,38.7,–,–,–,47.4,–,83.1,–,–
NC(CCCNCc1ccccc1O)C(=O)O (stereo not given),–,–,–,> 100,–,–,–,> 100,–,> 100,–,> 100,–,–,–,> 100,–,> 100,–,–
CCOC(=O)c1c2c(n3cccc(F)c13)C(=O)c1ncccc1C2=O,4.14,64.7,0.0994,3.22,0.541,10.7,1.17,7.47,0.114,4.99,1.03,3.69,–,–,0.486,19.4,0.541,6.77,0.436,6.82
CC(=O)O[C@@H]1CC(=O)O[C@@H]2C[C@@H](CC/C(Cl)=C/C/C=C\1C)O[C@@H]2CO,> 25,> 25,> 25,> 25,–,–,> 25,> 25,> 25,> 25,> 25,> 25,24.5,> 25,> 25,> 25,–,–,> 25,> 25
O=CNc1ccc2c(c1)Cc1cc([N+](=O)[O-])ccc1-2,4.11,> 100,1.53,> 100,–,–,4.99,> 100,5.32,> 100,3.21,> 100,2.93,> 100,> 22.3,> 100,5.97,> 100,2.77,> 100
O=[N+]([O-])c1ccc(C2N3CCCCC3[C@@H]3c4[nH]c5ccccc5c4CCN23)cc1 (stereo not given in full),–,–,–,28.2,–,–,–,> 100,–,> 100,–,> 100,–,–,–,42,–,–,–,–
COc1ccc(OC)c2c3c(ncc12)-c1cc2c(cc1C3)OCO2,4.76,> 100,22.1,> 100,> 100,> 100,9.48,> 100,22.5,> 100,24.8,> 100,–,–,> 100,> 100,–,–,> 100,> 100
C/C(CN1C(=O)c2ccccc2C1=O)=N\NS(C)(=O)=O,–,–,–,> 100,–,–,–,> 100,–,> 100,–,> 100,–,–,–,> 100,–,> 100,–,–
O=CN/C=C/c1ccccc1O,–,–,–,> 100,–,–,–,> 100,–,> 100,–,> 100,–,–,–,> 100,–,> 100,–,–
O=C(Cc1nc2ccccc2s1)NC12CC3CC(CC(C3)C1)C2,–,–,–,–,–,–,–,> 100,–,> 100,–,> 100,–,–,–,> 100,–,> 100,–,–
CCOCC[P+](c1ccccc1)(c1ccccc1)c1ccccc1,22.6,> 100,10.1,25,9.26,51.9,22.2,> 100,31.3,> 100,12.2,36,–,–,16,70.6,10.3,61.4,> 100,> 100
COC(=O)[C@]1(C)CCC[C@]2(C)C3CC4OOC3(C=C4C(C)C)CCC21 (stereo not given in full),–,–,–,29.6,–,–,–,41.8,–,17.6,–,4.15,–,–,–,–,–,41.6,–,–
COc1ccc(C2SC(C)C(=O)N2NC(=O)C(O)c2ccccc2)cc1 (stereo not given),> 100,> 100,> 100,> 100,> 100,> 100,> 100,> 100,> 100,> 100,> 100,> 100,> 100,> 100,> 100,> 100,–,–,> 100,> 100
CC(C)(C)C1CCN(C(=O)c2ccccc2)CC1,–,–,–,> 100,–,–,–,> 100,–,> 100,–,> 100,–,–,–,–,–,> 100,–,–
C#Cc1ccc(-n2c(/C=C/c3ccc4ccccc4n3)nc3ncccc3c2=O)cc1,0.544,1.65,0.246,0.683,–,–,0.763,2.95,0.575,2.24,0.297,0.851,0.514,2.19,0.904,2.13,0.798,2.35,0.338,1.23
O=c1[nH]c(C2CCCCC2)nc2cc(Cl)ccc12,–,–,–,> 100,–,–,–,> 100,–,> 100,–,–,–,–,–,> 100,–,> 100,–,–
Cc1ccccc1C(C#N)/C(=N/NC(=O)C(=O)NN)C(=O)Nc1cccc(C(F)(F)F)c1 (stereo not given),–,–,–,> 100,–,–,–,> 100,–,> 100,–,> 100,–,–,–,> 100,–,> 100,–,–
COC(=O)C1CCc2nnc(-c3cccnc3)n21 (stereo not given),–,–,–,> 100,–,–,–,> 100,–,> 100,–,> 100,–,–,–,> 100,–,> 100,–,–
